Test results as given in patent publication US20240116985A1, “STAPLED PEPTIDES AND METHODS THEREOF” (priority 2020, published 2024).
Values after ≈ are worked out from the molar mass of the structure shown. Where two headings read alike, the source gives them in different places.

Legend:
[1] = target: T1, full-length beta-Catenin (Uniprot ID P35222) (Homo sapiens, UniProt P35222); test: Fluorescence polarization IC50 (beta-catenin / 5FAM-TCF4 10-53 competition); format: binding
T1 construct: 10 nM full-length beta-Catenin (Uniprot ID P35222)
T1 sequence (P35222 1-781): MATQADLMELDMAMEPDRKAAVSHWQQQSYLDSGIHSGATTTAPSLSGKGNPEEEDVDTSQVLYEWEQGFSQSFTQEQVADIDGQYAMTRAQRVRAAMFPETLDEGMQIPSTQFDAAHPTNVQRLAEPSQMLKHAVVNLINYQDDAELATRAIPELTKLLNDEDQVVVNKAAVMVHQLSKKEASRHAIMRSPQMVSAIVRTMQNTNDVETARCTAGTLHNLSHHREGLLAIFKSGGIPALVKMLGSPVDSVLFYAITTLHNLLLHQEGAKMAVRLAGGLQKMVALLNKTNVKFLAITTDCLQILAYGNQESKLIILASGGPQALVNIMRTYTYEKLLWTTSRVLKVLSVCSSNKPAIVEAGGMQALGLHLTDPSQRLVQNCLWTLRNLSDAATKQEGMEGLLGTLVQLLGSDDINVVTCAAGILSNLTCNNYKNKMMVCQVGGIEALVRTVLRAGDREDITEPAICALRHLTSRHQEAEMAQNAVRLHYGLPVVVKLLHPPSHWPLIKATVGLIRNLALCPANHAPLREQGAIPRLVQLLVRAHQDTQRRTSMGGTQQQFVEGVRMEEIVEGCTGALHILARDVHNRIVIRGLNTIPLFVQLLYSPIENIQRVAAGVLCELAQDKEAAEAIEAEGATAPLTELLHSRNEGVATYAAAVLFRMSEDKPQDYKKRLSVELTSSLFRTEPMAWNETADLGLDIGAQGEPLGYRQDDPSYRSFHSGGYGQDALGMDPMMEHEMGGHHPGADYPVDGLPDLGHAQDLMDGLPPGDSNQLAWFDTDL

CHI Log D procedure = format: physicochemical; details: for CHI Log D: pH 7.4; for chromatographic logD: pH 7.4, CHI Log D
Solubility in PBS = format: physicochemical
How it was run: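 HPLC quantitation of peptide remaining in the PBS supernatant after ultracentrifugation, referenced to a 50 μM solution in DMSO.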

[2] = fluorescence polarization, read-out: beta-Catenin FP IC50
[3] = Table E2-1, read-out: beta-Catenin FP IC50
[4] = fluorescence polarization, beta-catenin, read-out: FP EC50

IC50 [1, 2] [nM] | IC50 ([1]; read-out: FP EC50) [nM] | CHI Log D (CHI Log D procedure) | Solubility (Solubility in PBS) [µM] | IC50 ([1]; read-out: beta-Catenin FP IC50) [nM] | chromatographic logD (CHI Log D procedure) | Solubility (Solubility in PBS; Solubility (uM)) [µM] | IC50 [1, 3] [nM] | IC50 [1, 4] [nM] | Structure (SMILES)
54 | 54 | 2.028 | 46 (≈ 84.7 µg/mL) | – | – | – | – | – | CC(=O)N1CCC[C@]12CC=CCCCC1(CCCC=CCCCCCC[C@@](C)(C(=O)N[C@@H](Cc3ccsc3)C(=O)N[C@@H](Cc3csc4ccccc34)C(=O)N[C@@H](Cc3c[nH]cn3)C(N)=O)NC(=O)[C@H](CC(N)=O)NC(=O)[C@H](Cc3ccccc3)NC(=O)[C@H](C)NC(=O)[C@H](C)NC(=O)[C@H](CCC(=O)O)NC(=O)[C@H](CC(=O)O)NC1=O)NC(=O)[C@H](C)NC(=O)[C@H](CC(=O)O)NC2=O (stereo partly drawn) [I-515, Ac-PL3-Asp-Ala-B5-Asp-Glu-Ala-Ala-Phe-Asn-S8-3Thi-BztA-His-NH2]
43 | 43 | 2.114 | 50 (≈ 92.1 µg/mL) | – | – | – | – | – | CC[C@@H]1NC(=O)[C@H](CC(=O)O)NC(=O)[C@]2(CC=CCCCC3(CCCC=CCCCCCC[C@@](C)(C(=O)N[C@@H](Cc4ccccc4)C(=O)N[C@@H](Cc4csc5ccccc45)C(=O)N[C@@H](CCC(N)=O)C(N)=O)NC(=O)[C@H](CC(N)=O)NC(=O)[C@H](Cc4ccccc4)NC(=O)[C@H](C)NC(=O)[C@H](C)NC(=O)[C@H](CCC(=O)O)NC(=O)[C@H](CC(=O)O)NC3=O)NC1=O)CCCN2C(C)=O (stereo partly drawn) [I-474, Ac-PL3-Asp-Abu-B5-Asp-Glu-Ala-Ala-Phe-Asn-S8-Phe-BztA-Gln-NH2]
– | – | – | – | 13 | 1.53 | 42 (≈ 89.7 µg/mL) | – | – | CC(=O)N1CCC[C@]12CC=CCCCC1(CCCC=CCCCOC(=O)N3CC[C@@](C(=O)N[C@@H](Cc4ccsc4)C(=O)N[C@@H](Cc4csc5ccccc45)C(=O)N[C@@H](CCC(N)=O)C(N)=O)(C3)NC(=O)[C@H](CC(N)=O)NC(=O)[C@H](Cc3ccccc3)NC(=O)[C@H](CCCCNC(=O)c3ccc(CN(C)C)cc3)NC(=O)[C@H](C)NC(=O)[C@H](CC(=O)O)NC(=O)[C@H](CC(=O)O)NC1=O)NC(=O)[C@H](CC(C)(C)C)NC(=O)[C@H](CC(=O)O)NC2=O (stereo partly drawn) [I-891, Ac-PL3-Asp-Npg-B5-Asp-Asp-Ala-[Me2NCBz]Lys-Phe-Asn-PyrS2-3Thi-BztA-Gln-NH2]
– | – | – | – | – | 2.05 | 37 (≈ 67.2 µg/mL) | 5000 | – | CC(=O)N1CCC[C@]12CC=CCCCC1(CCCC=CCCCCCC[C@@](C)(C(=O)N[C@@H](Cc3ccccc3)C(=O)N[C@@H](Cc3c[nH]c4ccccc34)C(=O)N[C@@H](CCC(N)=O)C(N)=O)NC(=O)[C@H](C(C)C)NC(=O)[C@H](Cc3ccc(F)c(F)c3)NC(=O)[C@H](C)NC(=O)[C@H](C)NC(=O)[C@H](CC(=O)O)NC(=O)[C@H](CC(=O)O)NC1=O)NC(=O)[C@H](C)NC(=O)[C@H](CC(=O)O)NC2=O (stereo partly drawn) [I-267, Ac-PL3-Asp-Ala-B5-Asp-Asp-Ala-Ala-34FF-Val-S8-Phe-Trp-Gln-NH2]
– | – | – | – | – | 2.18 | 47 (≈ 85.5 µg/mL) | 1560 | – | CC(=O)N1CCC[C@]12CC=CCCCC1(CCCC=CCCCCCC[C@@](C)(C(=O)N[C@@H](Cc3ccccc3)C(=O)N[C@@H](Cc3csc4ccccc34)C(=O)N[C@@H](CCC(N)=O)C(N)=O)NC(=O)[C@H](C)NC(=O)[C@H](Cc3ccc4ccccc4c3)NC(=O)[C@H](C)NC(=O)[C@H](C)NC(=O)[C@H](CC(=O)O)NC(=O)[C@H](CC(=O)O)NC1=O)NC(=O)[C@H](C)NC(=O)[C@H](CC(=O)O)NC2=O (stereo partly drawn) [I-370, Ac-PL3-Asp-Ala-B5-Asp-Asp-Ala-Ala-2NapA-Ala-S8-Phe-BztA-Gln-NH2]
– | – | 1.802 | 46 (≈ 90.9 µg/mL) | 1440 | – | – | – | 1440 | CCN(CC(=O)O)C[C@@H]1NC(=O)[C@H](CC(=O)O)NC(=O)C2(CCCC=CCCCOC(=O)N3CC[C@@](C(=O)N[C@@H](Cc4ccsc4)C(=O)N[C@@H](Cc4csc5ccccc45)C(=O)N[C@@H](CCC(N)=O)C(N)=O)(C3)NC(=O)[C@H](CC(N)=O)NC(=O)[C@H](Cc3ccccc3)NC(=O)[C@H](C)NC(=O)[C@H](C)NC1=O)CCCC=CC[C@]1(CCCN1C(C)=O)C(=O)N[C@@H](CC(=O)O)C(=O)N[C@@H](CC(C)(C)C)C(=O)N2 (stereo partly drawn) [I-964, Ac-PL3-Asp-Npg-B5-Asp-EtGA-Ala-Ala-Phe-Asn-PyrS2-3Thi-BztA-Gln-NH2]
162 | – | 2.13 | 50 (≈ 94.5 µg/mL) | – | – | – | – | 162 | CC(=O)N1CCC[C@]12CC=CCCCC1(CCCC=CCCCCCC[C@@](C)(C(=O)N[C@@H](Cc3ccsc3)C(=O)N[C@@H](Cc3csc4ccccc34)C(=O)N[C@@H](CCC(N)=O)C(N)=O)NC(=O)[C@H](CC(N)=O)NC(=O)[C@H](Cc3ccccc3)NC(=O)[C@H](C)NC(=O)[C@H](C)NC(=O)[C@H](CC(=O)O)NC(=O)[C@H](CC(=O)O)NC1=O)NC(=O)[C@H](CC(C)(C)C)NC(=O)C[C@H](CC(=O)O)NC2=O (stereo partly drawn) [I-1164, Ac-PL3-RbGlu-Npg-B5-Asp-Asp-Ala-Ala-Phe-Asn-S8-3Thi-BztA-Gln-NH2]
2200 | 2200 | 2.125 | 45 (≈ 83.9 µg/mL) | – | – | – | – | – | CC(=O)N1CCC[C@]12CC=CCCCC1(CCCC=CCCCCCC[C@@](C)(C(=O)N[C@@H](Cc3ccccc3)C(=O)N[C@@H](Cc3csc4ccccc34)C(=O)N[C@@H](CCC(N)=O)C(N)=O)NC(=O)[C@H](CCC(N)=O)NC(=O)[C@H](Cc3ccccc3)NC(=O)[C@H](C)NC(=O)[C@H](C)NC(=O)[C@H](CCC(=O)O)NC(=O)[C@H](Cc3nn[nH]n3)NC1=O)NC(=O)[C@H](C)NC(=O)[C@H](CC(=O)O)NC2=O (stereo partly drawn) [I-415, Ac-PL3-Asp-Ala-B5-tetz-Glu-Ala-Ala-Phe-Gln-S8-Phe-BztA-Gln-NH2]
– | – | 2.038 | 48 (≈ 85.6 µg/mL) | – | – | – | 2720 | 2720 | CC(=O)N1CCC[C@]12CC=CCCCC1(CCCC=CCCCCCC[C@@](C)(C(=O)N[C@@H](Cc3ccccc3)C(=O)N[C@@H](Cc3csc4ccccc34)C(=O)N[C@@H](CCC(N)=O)C(N)=O)NC(=O)[C@H](C)NC(=O)[C@H](Cc3ccccc3C)NC(=O)[C@H](C)NC(=O)[C@H](C)NC(=O)[C@H](CC(=O)O)NC(=O)[C@H](CC(=O)O)NC1=O)NC(=O)[C@H](C)NC(=O)[C@H](CC(=O)O)NC2=O (stereo partly drawn) [I-365, Ac-PL3-Asp-Ala-B5-Asp-Asp-Ala-Ala-2MeF-Ala-S8-Phe-BztA-Gln-NH2]
289 | – | – | – | – | 2.35 | 38 (≈ 70.3 µg/mL) | – | – | CCCC[C@@H]1NC(=O)[C@H](C)NC(=O)[C@H](C)NC(=O)[C@H](CCC(=O)O)NC(=O)[C@H](CC(=O)O)NC(=O)C2(CCCC=CCCCCCC[C@@](C)(C(=O)N[C@@H](Cc3ccccc3)C(=O)N[C@@H](Cc3csc4ccccc34)C(=O)N[C@@H](CCC(N)=O)C(N)=O)NC(=O)[C@H](CCC(N)=O)NC1=O)CCCC=CC[C@]1(CCCN1C(C)=O)C(=O)N[C@@H](CC(=O)O)C(=O)N[C@@H]([C@@H](C)CC)C(=O)N2 (stereo partly drawn) [I-728, Ac-PL3-Asp-Ile-B5-Asp-Glu-Ala-Ala-nLeu-Gln-S8-Phe-BztA-Gln-NH2]
– | – | – | – | 38 | 2.49 | 40 (≈ 86.6 µg/mL) | – | – | CC(=O)N1CCC[C@]12CC=CCCCC1(CCCC=CCCCOC(=O)N3CC[C@@](C(=O)N[C@@H](Cc4ccsc4)C(=O)N[C@@H](Cc4csc5ccccc45)C(=O)N[C@@H](CCC(N)=O)C(N)=O)(C3)NC(=O)[C@H](CC(N)=O)NC(=O)[C@H](Cc3ccccc3)NC(=O)[C@H](CCCCNC(=O)CCC34CC5CC(CC(C5)C3)C4)NC(=O)[C@H](C)NC(=O)[C@H](CC(=O)O)NC(=O)[C@H](CC(=O)O)NC1=O)NC(=O)[C@H](CC(C)(C)C)NC(=O)[C@H](CC(=O)O)NC2=O (stereo partly drawn) [I-901, Ac-PL3-Asp-Npg-B5-Asp-Asp-Ala-[AdamantPro]Lys-Phe-Asn-PyrS2-3Thi-BztA-Gln-NH2]
